Laboratory results from patent publication US10870618B2, “Histone deacetylase inhibitors and uses thereof” (MUSC FOUNDATION FOR RESEARCH DEVELOPMENT, priority 2016, dated 2020).
Values joined by “and” are separate entries in the source; they are usually repeats but may differ in a detail not shown here. Equal values may be shown once. “Also recorded” adds a separate entry of the source.

Legend:
[1] = system: Raw246.7 macrophage cells; assay: NO production in activated macrophages; format: cell-based; settings: 100 nM, LPS and LPS+ATP
Excerpt: Hypo-acetylation of histone H3 and H4 were also reversed with HDAC inhibitor treatments (yellow dash box). d.

MV4-11 cells [2] = assay: Western blot analysis of MV4-11 cells; format: cell-based
Experimental: MV4-11 cells were cultured as described above. Cells were plated at 500 k cells/mL×3 mLs in clear, flat bottom 6 well plates. Cells were pre-incubated for 24 hours before addition of inhibitor at various concentrations. […] Cell pellets were lysed with RIPA buffer. RIPA buffer is comprised of 50 mM Tris Base, 150 mM NaCl, 5 mM EDTA, 0.1% (v/v) SDS, 0.5% (v/v) Sodium Deoxycholate, and 1% (v/v) Triton-x-100. After lysing, the suspension is ultra-sonicated and centrifuged at 15000 RPM for 15 minute at 4° C. 80 μL of supernatant was mixed with 40 μL of 15:85 (v/v) 3-mercaptoethanol:LDS solution. The mixture was heated at 90° C. for 15 minutes and stored for loading at −20° C. Prior to loading, the solution was flash thawed at 90° C. Lysates were run on Invitrogen NuPAGE 4-12% Bis-Tris 15 well gels at 170V for approximately 60 minutes in MES buffer. Gels were transferred to […] and ran at 30V for 180 minutes. Primary antibodies, purchased from Santa Cruz Biotechnology, were added in 5% (w/v) milk or 5% (w/v) Bovine Serum Albumin fraction V. The antibody was incubated with cellulose overnight at 4° C. before addition of secondary antibody in 5% (w/v) milk or 5% (w/v) Bovine Serum Albumin. Images were read using a GE ImageQuant LAS 4000. Global lighting adjustments of resulting images were made using Adobe Photoshop CC. Quantification was performed using Image Studio Lite 4.0.

[3] = In vivo PK, plasma concentration via LC-MS/MS; parameters: species or system mice
Experimental: The PK parameters were analyzed. The area under the plasma concentration versus time curve (AUC) is calculated using the linear trapezoidal method. The PK data were fitted to obtain PK parameters using the non-compartmental method.
LP-411 in vivo PK. a. Semi-log PK profiles for […] at 20 mg/kg (n=3) determined through a 24 hr period. b.

[4] = Stability in artificial gastric and intestinal juice and human serum; format: in vitro ADME; settings: over 8 hours
MV4-11 cells [5] = assay: Pulse treatment of MV4-11 cells, cell death; format: cell-based; settings: 2 hr treatment (200 nM), removal of inhibitor, 24 hr incubation
[6] = system: melanoma and renal cancer; assay: Cell line efficacy, melanoma and renal cancer growth; format: cell-based; settings: melanoma and renal cancer cell lines
Excerpt: Percent growth below zero indicates the treatment has selective lethality to the cancer cells.

AML cell lines = assay: AML / leukemia cell toxicity; format: cell-based
Experimental: MV4-11 cells were purchased from ATCC. The cells were grown according to ATCC protocol in Iscove's Modified Deulbecco's Medium with 10% Fetal Bovine Serum. Cells were grown in 37° C. environments with 5% CO2. Cells were plated at 20 k cells/well in 96-well clear U-bottom plates and pre-incubated for 24 hours. Addition of serially diluted inhibitor (in medium) was performed followed by 48 hours of additional incubation. Addition of CellTiter-Blue occurred to a final concentration of 0.125 mg/mL. The mixture was allowed to incubate until sufficient color changed occurred. Cell viability was measured as a function of resorfuin intensity using a Tecan M200 Pro spectrophotometer, 560 nm (ex.)/590 nm (em.). […] EC50's were determined using GraphPad Prism's built in “log(inhibitor) vs. normalized response—Variable slope” function.
Hek293 cells were purchased from ATCC. Cells were grown as described above. Cells were plated at 20 k cells/well in 96-well clear U-bottom plates and pre-incubated for 24 hours. […] Cell viability was measured as a function of resorufin intensity using a Tecan M200 Pro spectrophotometer, 560 nm (ex.)/590 nm (em.).
Human PBMCs were graciously donated from Dr. Nathan Dolloff s laboratory. […] Cell viability was measured as a function of resorufin intensity using a Tecan M200 Pro spectrophotometer, 560 nm (ex.)/590 nm (em.).

[7] = ESI-LCMS glucuronidation assay; format: in vitro ADME, human; settings: 2,2,2-trifluoroacetate
Experimental: Mixed gender pooled Human Liver Microsomes (HLMs) were purchased from Xenotech, Lot#H0160. A buffer solution containing 100 mM Tris HCl buffered to a pH of 7.5 at 37° C. was used to dilute HLMs to a concentration of 250 μg/mL. To this solution was added 1 μg/mL (final) of alamethicin and 5 mM MgCl2 (final). This solution was rocked gently at 4° C. for 15 minutes to allow pore formation. 180 μL of this solution was added to 10 μL of 5 mM inhibitor+10 μL of 50 mM UDPGA in H2O or just 10 μL H2O. This solution was gently rocked at 37° C. for 12 hours before being quenched with a 47:50:3 (v/v/v) solution of water, acetonitrile and formic acid. After a 15 minute centrifugation at 15000G in 37° C. conditions, 20 μL of supernatant was directly injected into Thermo LTQ Fleet LCMS.
An Accucore RP-MS HPLC Column, 2.6 […], 30×4.6 mm was used throughout these assays. Water and methanol with 0.1% (v/v) formic acid were used as mobile phase. A gradient of 10% methanol 90% water was run isocratically for 2 minutes at […]. The gradient then changed to 100% methanol over 10 minutes before returning to 10% methanol 90% water over the next three minutes. Capillary temperature was 350° C., with a spray voltage of 5 kV.

class I HDACs = assay: Class I HDAC inhibition (FIG. 7a); format: biochemical
Experimental: All Treatments are at 100 nM inhibitor concentration.

## CCCNNC(=O)/C=C/c1ccc(CNCCc2c(C)[nH]c3ccccc23)cc1 [LP-97, (E)-2-(2-methyl-1H-indol-3-yl)-N-(4-(3-oxo-3-(2-propylhydrazinyl)prop-1-en-1-yl)benzyl)ethan-1-aminium 2,2,2-trifluoroacetate]
[1]
  NO production, acute treatment: only inhibited LPS induced NO production but not ATP driven ones
MV4-11 cells [2]; 2 hr treatment (200 nM), removal of inhibitor, 24 hr incubation
  p53 level after pulse treatment: significant reduction
MV4-11 cells [2]; AML FLT3-ITD mutant cell line MV4-11
  effect on oncogenic proteins FLT3 and STAT5: degradation
[3]; 20 mg/Kg I.P.
  Cmax relative to panobinostat: about 5 times
[3]; in vivo, 20 mg/kg, plasma
  t1/2: 6.07 h
[3]; mouse, intraperitoneal, in vivo, 20 mg/kg, plasma
  half-life: 6.07 h
[3]; mouse, plasma, ip, 20 mg/kg I.P.
  Cmax: 559 ng/mL and 1.5 µM
[4]
  degradation in artificial gastric and intestinal juice and human serum: no appreciable degradation
MV4-11 cells [5]
  cell death after pulse treatment: significant AML cell death
[6]
  growth inhibition concentration: below 100 nM
  total growth inhibition concentration: 1 µM
AML cell lines; n=3
  toxicity against wt-p53 versus p53-null and mutants: selective toxicity
AML cell lines; wild-type p53 leukemia cell lines
  effective concentration against multiple AML cell lines: < 100 nM
[7]
  glucuronidation by human liver microsomes: resistance to glucuronidation; also recorded: resistant to glucuronidation
Class I HDACs
  HDAC inhibitor potency, class I HDACs: low-nanoM to picoM
